Each block holds one compound with its values, some of them ahead of it.
Columns and labels:
[1] = target: T1, human Cereblon WT GST-tagged protein (Homo sapiens, UniProt Q96SW2); assay: CRBN-binding affinity, HTRF (CEREBLON BINDING kit); conditions: for inhibition at 0.5 µM: read-out: Inhibition Rate at 0.5 µM (%); for inhibition at 2 µM: read-out: Inhibition Rate at 2 µM (%)
T1 construct: purchased CISBIO 64BDCRBNPEH

[2] = test system: GSPT1; assay: Western blot, degradation of substrate protein in hPBMCs; format: cell-based, Human
[3] = target: T2, IKZF3 (Homo sapiens, UniProt Q96SW2+Q9UKT9); assay: as above; format: cell-based
T2 construct: effects of the compounds of the present disclosure on the expression of target proteins in cells; endogenous in cells; host or cells: human PBMCs (Milecell Biotechnologies)

[4] = target: T3, IKZF1 (Homo sapiens, UniProt Q13422+Q96SW2); assay: as above; format: cell-based
T3 construct: effects of the compounds of the present disclosure on the expression of target proteins in cells; endogenous in cells; host or cells: human PBMCs (Milecell Biotechnologies)

[5] = target: T4, IKZF2 (Homo sapiens, UniProt Q96SW2+Q9UKS7); assay: as above; format: cell-based
T4 construct: effects of the compounds of the present disclosure on the expression of target proteins in cells; endogenous in cells; host or cells: human PBMCs (Milecell Biotechnologies)

[6] = target: T5, CK1α (Homo sapiens, UniProt P48729+Q96SW2); assay: as above; format: cell-based
T5 construct: effects of the compounds of the present disclosure on the expression of target proteins in cells; endogenous in cells; host or cells: human PBMCs (Milecell Biotechnologies)

[7] = target: T6, WEE1 (Homo sapiens, UniProt P30291+Q96SW2); assay: as above; format: cell-based
T6 construct: effects of the compounds of the present disclosure on the expression of target proteins in cells; endogenous in cells; host or cells: human PBMCs (Milecell Biotechnologies)

[8] = Western blot, 24 hours of compound treatment, compounds tested at 50 nM and 500 nM (concentration for the table not stated)
[9] = 24 hours treatment, compounds at 50 nM and 500 nM (concentration behind the class not stated)

T5 sequence (P48729 whole entry): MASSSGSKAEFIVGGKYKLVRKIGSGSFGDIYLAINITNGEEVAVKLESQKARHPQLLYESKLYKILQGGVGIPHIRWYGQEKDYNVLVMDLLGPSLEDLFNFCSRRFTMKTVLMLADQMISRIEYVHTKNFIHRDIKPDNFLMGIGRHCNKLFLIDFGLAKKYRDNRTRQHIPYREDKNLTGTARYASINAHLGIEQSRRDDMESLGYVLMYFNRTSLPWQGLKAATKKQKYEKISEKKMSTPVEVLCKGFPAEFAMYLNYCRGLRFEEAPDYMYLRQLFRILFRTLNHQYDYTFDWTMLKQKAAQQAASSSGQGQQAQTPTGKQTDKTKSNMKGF
T5 sequence (Q96SW2 whole entry): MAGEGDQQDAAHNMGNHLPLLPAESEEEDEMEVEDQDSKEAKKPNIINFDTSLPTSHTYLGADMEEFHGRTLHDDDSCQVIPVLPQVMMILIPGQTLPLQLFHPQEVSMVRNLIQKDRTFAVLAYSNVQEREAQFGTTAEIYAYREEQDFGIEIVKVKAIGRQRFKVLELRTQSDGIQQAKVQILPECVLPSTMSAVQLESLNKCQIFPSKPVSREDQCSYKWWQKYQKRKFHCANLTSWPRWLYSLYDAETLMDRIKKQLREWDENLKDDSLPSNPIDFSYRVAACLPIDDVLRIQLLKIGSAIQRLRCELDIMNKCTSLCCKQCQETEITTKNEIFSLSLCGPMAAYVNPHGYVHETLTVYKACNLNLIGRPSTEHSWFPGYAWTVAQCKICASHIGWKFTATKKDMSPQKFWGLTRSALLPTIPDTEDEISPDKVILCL
T5 sequence (Q16531 whole entry partner): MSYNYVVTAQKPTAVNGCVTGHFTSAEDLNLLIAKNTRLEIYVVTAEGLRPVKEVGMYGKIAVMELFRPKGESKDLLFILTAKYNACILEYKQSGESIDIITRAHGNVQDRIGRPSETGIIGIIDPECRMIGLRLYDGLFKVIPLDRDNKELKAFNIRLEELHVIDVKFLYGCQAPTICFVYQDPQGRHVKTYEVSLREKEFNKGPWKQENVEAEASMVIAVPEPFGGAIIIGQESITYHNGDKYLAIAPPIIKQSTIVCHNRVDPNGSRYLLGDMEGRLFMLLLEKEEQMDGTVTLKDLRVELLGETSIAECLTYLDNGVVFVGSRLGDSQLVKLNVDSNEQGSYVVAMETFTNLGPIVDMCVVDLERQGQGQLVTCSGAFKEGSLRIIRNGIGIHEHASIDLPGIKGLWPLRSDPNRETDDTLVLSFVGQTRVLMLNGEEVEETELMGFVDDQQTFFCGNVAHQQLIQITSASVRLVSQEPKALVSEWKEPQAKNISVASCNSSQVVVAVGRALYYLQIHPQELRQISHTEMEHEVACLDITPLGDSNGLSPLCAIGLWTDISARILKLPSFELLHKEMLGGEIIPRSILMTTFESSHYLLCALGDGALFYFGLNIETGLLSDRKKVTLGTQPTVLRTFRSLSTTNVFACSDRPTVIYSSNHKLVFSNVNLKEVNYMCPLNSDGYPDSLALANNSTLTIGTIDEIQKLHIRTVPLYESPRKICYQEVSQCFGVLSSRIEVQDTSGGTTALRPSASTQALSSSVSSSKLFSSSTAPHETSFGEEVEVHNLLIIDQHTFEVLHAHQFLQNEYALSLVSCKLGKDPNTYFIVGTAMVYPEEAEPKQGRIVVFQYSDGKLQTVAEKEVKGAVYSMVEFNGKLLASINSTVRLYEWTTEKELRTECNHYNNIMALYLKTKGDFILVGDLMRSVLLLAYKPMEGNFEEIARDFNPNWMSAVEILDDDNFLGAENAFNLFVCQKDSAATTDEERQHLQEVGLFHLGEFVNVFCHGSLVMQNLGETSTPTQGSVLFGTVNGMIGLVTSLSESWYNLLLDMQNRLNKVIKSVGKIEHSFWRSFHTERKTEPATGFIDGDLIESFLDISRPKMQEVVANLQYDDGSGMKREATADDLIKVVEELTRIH
T4 sequence (Q9UKS7 whole entry): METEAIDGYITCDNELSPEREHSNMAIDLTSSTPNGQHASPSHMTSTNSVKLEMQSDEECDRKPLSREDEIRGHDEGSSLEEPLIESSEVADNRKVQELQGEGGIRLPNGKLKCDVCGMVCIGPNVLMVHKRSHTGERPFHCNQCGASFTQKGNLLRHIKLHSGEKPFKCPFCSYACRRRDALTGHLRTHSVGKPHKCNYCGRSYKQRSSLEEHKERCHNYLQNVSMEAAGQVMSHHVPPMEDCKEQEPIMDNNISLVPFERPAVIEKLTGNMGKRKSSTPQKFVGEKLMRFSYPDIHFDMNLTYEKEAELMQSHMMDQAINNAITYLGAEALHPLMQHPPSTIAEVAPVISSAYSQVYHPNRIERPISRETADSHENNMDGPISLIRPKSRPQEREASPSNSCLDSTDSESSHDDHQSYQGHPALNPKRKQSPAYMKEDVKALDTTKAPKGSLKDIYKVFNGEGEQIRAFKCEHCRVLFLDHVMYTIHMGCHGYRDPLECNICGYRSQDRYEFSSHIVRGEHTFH
T4 sequence (Q96SW2 whole entry): as the sequence (Q96SW2 whole entry) above
T4 sequence (Q16531 whole entry partner): as the sequence (Q16531 whole entry partner) above
T3 sequence (Q13422 whole entry): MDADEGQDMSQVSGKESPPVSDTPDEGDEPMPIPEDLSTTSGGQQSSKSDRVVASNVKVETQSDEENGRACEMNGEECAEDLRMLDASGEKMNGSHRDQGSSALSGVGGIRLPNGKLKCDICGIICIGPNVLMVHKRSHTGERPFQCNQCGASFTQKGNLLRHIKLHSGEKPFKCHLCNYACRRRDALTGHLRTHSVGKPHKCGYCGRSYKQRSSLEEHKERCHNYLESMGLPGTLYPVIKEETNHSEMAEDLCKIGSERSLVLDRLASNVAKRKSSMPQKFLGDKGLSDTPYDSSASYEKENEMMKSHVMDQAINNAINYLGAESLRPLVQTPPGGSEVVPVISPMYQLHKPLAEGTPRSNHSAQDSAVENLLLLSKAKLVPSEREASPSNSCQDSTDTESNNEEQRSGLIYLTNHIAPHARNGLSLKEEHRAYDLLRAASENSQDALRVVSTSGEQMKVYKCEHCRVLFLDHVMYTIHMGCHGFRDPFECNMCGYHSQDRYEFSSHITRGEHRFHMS
T3 sequence (Q96SW2 whole entry): as the sequence (Q96SW2 whole entry) above
T3 sequence (Q16531 whole entry partner): as the sequence (Q16531 whole entry partner) above
T6 sequence (P30291 whole entry): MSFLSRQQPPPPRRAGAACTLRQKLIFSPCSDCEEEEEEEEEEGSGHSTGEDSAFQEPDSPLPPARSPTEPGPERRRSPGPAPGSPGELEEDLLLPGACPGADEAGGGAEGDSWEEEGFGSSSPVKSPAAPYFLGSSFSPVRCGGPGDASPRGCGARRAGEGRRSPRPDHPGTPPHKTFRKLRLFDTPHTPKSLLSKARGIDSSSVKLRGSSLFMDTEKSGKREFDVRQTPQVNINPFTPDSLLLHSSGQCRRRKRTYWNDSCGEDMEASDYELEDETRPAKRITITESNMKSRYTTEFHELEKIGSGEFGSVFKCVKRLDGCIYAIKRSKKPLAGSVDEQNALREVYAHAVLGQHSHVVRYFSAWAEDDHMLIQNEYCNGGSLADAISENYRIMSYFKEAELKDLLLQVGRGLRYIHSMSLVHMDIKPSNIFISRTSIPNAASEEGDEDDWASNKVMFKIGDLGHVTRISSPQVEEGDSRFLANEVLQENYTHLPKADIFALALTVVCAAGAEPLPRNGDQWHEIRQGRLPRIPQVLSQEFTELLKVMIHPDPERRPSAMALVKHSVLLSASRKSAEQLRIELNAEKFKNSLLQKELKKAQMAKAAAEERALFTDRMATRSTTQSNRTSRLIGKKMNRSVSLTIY
T6 sequence (Q96SW2 whole entry): as the sequence (Q96SW2 whole entry) above
T6 sequence (Q16531 whole entry partner): as the sequence (Q16531 whole entry partner) above
T2 sequence (Q9UKT9 whole entry): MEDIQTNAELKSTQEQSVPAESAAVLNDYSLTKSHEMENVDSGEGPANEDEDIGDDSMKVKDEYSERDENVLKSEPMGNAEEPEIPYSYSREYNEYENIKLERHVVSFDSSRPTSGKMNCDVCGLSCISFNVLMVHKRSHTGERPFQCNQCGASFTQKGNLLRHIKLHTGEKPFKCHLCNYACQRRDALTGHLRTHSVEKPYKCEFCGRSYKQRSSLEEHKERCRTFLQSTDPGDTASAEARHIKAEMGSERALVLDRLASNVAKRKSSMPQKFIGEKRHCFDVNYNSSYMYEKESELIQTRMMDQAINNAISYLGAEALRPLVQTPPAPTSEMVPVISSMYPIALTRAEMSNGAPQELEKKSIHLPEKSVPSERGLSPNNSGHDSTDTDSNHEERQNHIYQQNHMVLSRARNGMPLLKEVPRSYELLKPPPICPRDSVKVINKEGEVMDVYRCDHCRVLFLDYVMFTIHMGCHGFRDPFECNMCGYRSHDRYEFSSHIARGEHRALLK
T2 sequence (Q96SW2 whole entry): as the sequence (Q96SW2 whole entry) above
T2 sequence (Q16531 whole entry partner): as the sequence (Q16531 whole entry partner) above
T1 sequence (Q96SW2 whole entry): as the sequence (Q96SW2 whole entry) above

Compound: Cn1cc(C2=CCN(Cc3cccc4c3CN(C3CCC(=O)NC3=O)C4=S)CC2)c2ccc(F)cc21 (stereo not drawn) [GT-08493, 3-(4-((4-(6-fluoro-1-methyl-1H-indol-3-yl)-3,6-dihydropyridin-1(2H)-yl)methyl)-1-thioxoisoindolin-2-yl)piperidine-2,6-dione]
inhibition at 0.5 µM [1]: 40 to 53% | inhibition at 2 µM [1]: 80 to 100% | GSPT1 substrate protein remaining % [2, 8]: A (0% ≤ substrate protein remaining % ≤ 80%) | IKZF3 substrate protein remaining % [3, 8]: B (80%< substrate protein remaining %≤ 100%) | IKZF 1 substrate protein remaining % [4, 8]: B (80%< substrate protein remaining %≤ 100%) | IKZF2 substrate protein remaining % [5, 8]: A (0% ≤ substrate protein remaining % ≤ 80%) | CK1α substrate protein remaining % [6, 8]: B (80%< substrate protein remaining %≤ 100%) | Wee1 substrate protein remaining % [7, 8]: B (80%< substrate protein remaining %≤ 100%)

Compound: Cc1nc(C2CCN(Cc3cccc4c3CN(C3CCC(=O)NC3=O)C4=S)CC2)c2ccsc2n1 (stereo not drawn) [GT-08932, 3-(4-((4-(2-methylthieno[2,3-d]pyrimidin-4-yl)piperidin-1-yl)methyl)-1-thioxoisoindolin-2-yl)piperidine-2,6-dione]
inhibition at 0.5 µM [1]: 60 to 80% | inhibition at 2 µM [1]: 80 to 100% | GSPT1 substrate protein remaining % [2, 9]: B (80%< substrate protein remaining %≤ 100%) | IKZF3 substrate protein remaining % [3, 9]: B (80%< substrate protein remaining %≤ 100%) | IKZF 1 substrate protein remaining % [4, 9]: B (80%< substrate protein remaining %≤ 100%) | IKZF2 substrate protein remaining % [5, 9]: B (80%< substrate protein remaining %≤ 100%) | CK1α substrate protein remaining % [6, 9]: B (80%< substrate protein remaining %≤ 100%) | Wee1 substrate protein remaining % [7, 9]: A (0% ≤ substrate protein remaining % ≤ 80%)

Compound: O=C1CCC(N2Cc3cc(CN4CCN(C(c5ccccc5)c5cccnc5)CC4)ccc3C2=S)C(=O)N1 (stereo not drawn) [GT-07732, 3-(5-((4-(phenyl(pyridin-3-yl)methyl)piperazin-1-yl)methyl)-1-thioxoisoindolin-2-yl)piperidine-2,6-dione]
inhibition at 0.5 µM [1]: 53 to 60% | inhibition at 2 µM [1]: 80 to 100% | GSPT1 substrate protein remaining % [2, 8]: A (0% ≤ substrate protein remaining % ≤ 80%) | IKZF3 substrate protein remaining % [3, 8]: A (0% ≤ substrate protein remaining % ≤ 80%) | IKZF 1 substrate protein remaining % [4, 8]: B (80%< substrate protein remaining %≤ 100%) | IKZF2 substrate protein remaining % [5, 8]: B (80%< substrate protein remaining %≤ 100%) | CK1α substrate protein remaining % [6, 8]: B (80%< substrate protein remaining %≤ 100%) | Wee1 substrate protein remaining % [7, 8]: A (0% ≤ substrate protein remaining % ≤ 80%)

Compound: O=C1CCC(N2Cc3c(CN4CCC(c5ccoc5)CC4)cccc3C2=S)C(=O)N1 (stereo not drawn) [GT-08317, 3-(4-((4-(furan-3-yl)piperidin-1-yl)methyl)-1-thioxoisoindolin-2-yl)piperidine-2,6-dione]
inhibition at 0.5 µM [1]: 40 to 53% | inhibition at 2 µM [1]: 60 to 80% | GSPT1 substrate protein remaining % [2, 9]: B (80%< substrate protein remaining %≤ 100%) | IKZF3 substrate protein remaining % [3, 9]: A (0% ≤ substrate protein remaining % ≤ 80%) | IKZF 1 substrate protein remaining % [4, 9]: B (80%< substrate protein remaining %≤ 100%) | IKZF2 substrate protein remaining % [5, 9]: A (0% ≤ substrate protein remaining % ≤ 80%) | CK1α substrate protein remaining % [6, 9]: B (80%< substrate protein remaining %≤ 100%) | Wee1 substrate protein remaining % [7, 9]: A (0% ≤ substrate protein remaining % ≤ 80%)

Compound: O=C1CCC(N2Cc3cc(CN4CCC(c5ccnc6cc(F)ccc56)CC4)ccc3C2=S)C(=O)N1 (stereo not drawn) [GT-09278, 3-(5-((4-(7-fluoroquinolin-4-yl)piperidin-1-yl)methyl)-1-thioxoisoindolin-2-yl)piperidine-2,6-dione]
inhibition at 0.5 µM [1]: 30 to 40% | inhibition at 2 µM [1]: 60 to 80% | GSPT1 substrate protein remaining % [2, 9]: B (80%< substrate protein remaining %≤ 100%) | IKZF3 substrate protein remaining % [3, 9]: A (0% ≤ substrate protein remaining % ≤ 80%) | IKZF 1 substrate protein remaining % [4, 9]: A (0% ≤ substrate protein remaining % ≤ 80%) | IKZF2 substrate protein remaining % [5, 9]: B (80%< substrate protein remaining %≤ 100%) | CK1α substrate protein remaining % [6, 9]: B (80%< substrate protein remaining %≤ 100%) | Wee1 substrate protein remaining % [7, 9]: A (0% ≤ substrate protein remaining % ≤ 80%)

More lines, main results first:

inhibition at 0.5 µM [1]: 60 to 80% | inhibition at 2 µM [1]: 80 to 100%
Compound: O=C1CCC(N2Cc3cc(CN4CCN(c5nc(N6CCNCC6)c6sccc6n5)CC4)ccc3C2=S)C(=O)N1 (stereo not drawn) [GT-09365, 3-(5-((4-(4-(piperazin-1-yl)thieno[3,2-d]pyrimidin-2-yl)piperazin-1-yl)methyl)-1-thioxoisoindolin-2-yl)piperidine-2,6-dione]
GSPT1 substrate protein remaining % [2, 9]: A (0% ≤ substrate protein remaining % ≤ 80%) | IKZF3 substrate protein remaining % [3, 9]: B (80%< substrate protein remaining %≤ 100%) | IKZF 1 substrate protein remaining % [4, 9]: A (0% ≤ substrate protein remaining % ≤ 80%) | IKZF2 substrate protein remaining % [5, 9]: B (80%< substrate protein remaining %≤ 100%) | CK1α substrate protein remaining % [6, 9]: A (0% ≤ substrate protein remaining % ≤ 80%) | Wee1 substrate protein remaining % [7, 9]: B (80%< substrate protein remaining %≤ 100%)

inhibition at 0.5 µM [1]: 60 to 80% | inhibition at 2 µM [1]: 80 to 100%
Compound: Cc1cc(N2CCN(Cc3cccc4c3CN(C3CCC(=O)NC3=O)C4=S)CC2)cs1 (stereo not drawn) [GT-08298, 3-(4-((4-(5-methylthiophen-3-yl)piperazin-1-yl)methyl)-1-thioxoisoindolin-2-yl)piperidine-2,6-dione]
GSPT1 substrate protein remaining % [2, 8]: B (80%< substrate protein remaining %≤ 100%) | IKZF3 substrate protein remaining % [3, 8]: B (80%< substrate protein remaining %≤ 100%) | IKZF 1 substrate protein remaining % [4, 8]: B (80%< substrate protein remaining %≤ 100%) | IKZF2 substrate protein remaining % [5, 8]: B (80%< substrate protein remaining %≤ 100%) | CK1α substrate protein remaining % [6, 8]: B (80%< substrate protein remaining %≤ 100%) | Wee1 substrate protein remaining % [7, 8]: A (0% ≤ substrate protein remaining % ≤ 80%)

inhibition at 0.5 µM [1]: 60 to 80% | inhibition at 2 µM [1]: 80 to 100%
Compound: O=C1CCC(N2Cc3c(CN4CCN(c5ncccc5F)CC4)cccc3C2=S)C(=O)N1 (stereo not drawn) [GT-08697, 3-(4-((4-(3-fluoropyridin-2-yl)piperazin-1-yl)methyl)-1-thioxoisoindolin-2-yl)piperidine-2,6-dione]
GSPT1 substrate protein remaining % [2, 8]: B (80%< substrate protein remaining %≤ 100%) | IKZF3 substrate protein remaining % [3, 8]: B (80%< substrate protein remaining %≤ 100%) | IKZF 1 substrate protein remaining % [4, 8]: B (80%< substrate protein remaining %≤ 100%) | IKZF2 substrate protein remaining % [5, 8]: B (80%< substrate protein remaining %≤ 100%) | CK1α substrate protein remaining % [6, 8]: B (80%< substrate protein remaining %≤ 100%) | Wee1 substrate protein remaining % [7, 8]: A (0% ≤ substrate protein remaining % ≤ 80%)

inhibition at 0.5 µM [1]: 53 to 60% | inhibition at 2 µM [1]: 80 to 100%
Compound: O=C1CCC(N2Cc3cc(CN4CCN(c5ncnc6sc7c(c56)CCCC7)CC4)ccc3C2=S)C(=O)N1 (stereo not drawn) [GT-09300, 3-(5-((4-(5,6,7,8-tetrahydrobenzo[4,5]thieno[2,3-d]pyrimidin-4-yl)piperazin-1-yl)methyl)-1-thioxoisoindolin-2-yl)piperidine-2,6-dione]
GSPT1 substrate protein remaining % [2, 9]: B (80%< substrate protein remaining %≤ 100%) | IKZF3 substrate protein remaining % [3, 9]: A (0% ≤ substrate protein remaining % ≤ 80%) | IKZF 1 substrate protein remaining % [4, 9]: A (0% ≤ substrate protein remaining % ≤ 80%) | IKZF2 substrate protein remaining % [5, 9]: A (0% ≤ substrate protein remaining % ≤ 80%) | CK1α substrate protein remaining % [6, 9]: B (80%< substrate protein remaining %≤ 100%) | Wee1 substrate protein remaining % [7, 9]: B (80%< substrate protein remaining %≤ 100%)
